According to PubChem BioAssay (NCI):
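48-hour exposure; five concentrations; linearly interpolated endpoints. At the GI50, growth is halved. At the TGI there is no net growth.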

Assays:
Experiment in all cases: inhibition of tumour cell growth, NCI panel, 48 h
HCC-2998 colon = test system: HCC-2998 colon
SN12C renal = test system: SN12C renal
SK-MEL-5 melanoma = test system: SK-MEL-5 melanoma
SF-539 CNS = test system: SF-539 CNS
KM20L2 colon = test system: KM20L2 colon
HCT-15 colon = test system: HCT-15 colon
DMS 273 small cell lung = test system: DMS 273 small cell lung
HCT-116 colon = test system: HCT-116 colon
RPMI-8226 leukemia = test system: RPMI-8226 leukemia
MDA-MB-435 = test system: MDA-MB-435

Compound	TGI (HCC-2998 colon) [µM]	TGI (SN12C renal) [µM]	TGI (SK-MEL-5 melanoma) [µM]	TGI (SF-539 CNS) [µM]	TGI (KM20L2 colon) [µM]	TGI (HCT-15 colon) [µM]	TGI (DMS 273 small cell lung) [µM]	TGI (HCT-116 colon) [µM]	TGI (RPMI-8226 leukemia) [µM]	GI50 (HCC-2998 colon) [µM]	GI50 (SN12C renal) [µM]	GI50 (SK-MEL-5 melanoma) [µM]	GI50 (SF-539 CNS) [µM]	GI50 (KM20L2 colon) [µM]	GI50 (HCT-15 colon) [µM]	GI50 (DMS 273 small cell lung) [µM]	GI50 (HCT-116 colon) [µM]	GI50 (RPMI-8226 leukemia) [µM]	GI50 (MDA-MB-435) [µM]	TGI (MDA-MB-435) [µM]
O=S(=O)(NCn1ccc2ccccc21)c1ccccc1	> 100	> 100	> 100	> 100	> 100	> 100	> 100	> 100	47.2	–	–	–	–	–	–	–	–	–	–	–
O=C(O)CCNCCCCNCCC(=O)O	> 100	> 100	> 100	> 100	> 100	> 100	> 100	> 100	> 100	–	–	–	–	–	–	–	–	–	–	–
C=CCO/N=C(\OC(=O)c1ccc([N+](=O)[O-])cc1)c1ccccc1	> 100	> 100	> 100	> 100	–	> 100	> 100	–	> 100	–	–	–	–	–	–	–	–	–	–	–
C=CCC1=C(C)C[C@@H]2CCC(=O)C=C12	–	> 100	> 100	> 100	–	> 100	> 100	> 100	> 100	–	–	–	–	–	–	–	–	–	–	–
CC1CCSC(N(C(=O)N(C)c2ccccc2)c2ccccc2)=N1 (configuration not stated)	> 100	> 100	> 100	> 100	> 100	> 100	> 100	> 100	> 100	–	–	–	–	–	–	–	–	–	–	–
N.N.N.N.N.O=[N+]([O-])[O-].[Co+3].[O-][Cl+3]([O-])([O-])[O-]	> 100	> 100	> 100	> 100	> 100	> 100	> 100	> 100	> 100	> 100	> 100	> 100	> 100	> 100	> 100	> 100	> 100	> 100	–	–
CC(C)CCCC(C)[C@H]1CCC2[C@@H]3CCC4Nc5c(cnn5-c5ccccc5)C[C@]4(C)C3CC[C@@]21C (some centres not stated)	> 100	> 100	> 100	> 100	> 100	> 100	8.08	> 100	> 100	–	–	–	–	–	–	–	–	–	–	–
COc1ccc(CCn2c(=O)c3ccccc3n(C)c2=O)cc1	> 100	> 100	> 100	> 100	> 100	–	–	> 100	> 100	–	–	–	–	–	–	–	–	–	–	–
CCOC(=O)N1CCc2cc(OC)c(OC)cc2/C1=C\c1ccc(OC)c(OC)c1	> 100	> 100	–	59.2	65.4	> 100	61.9	40.4	> 100	–	–	–	–	–	–	–	–	–	–	–
NNC(=O)C(=O)N/N=C1\CCC(=O)CC1C(=O)CCC(=O)Nc1ccc(Cl)cc1 (configuration not stated)	> 100	> 100	> 100	> 100	> 100	> 100	> 100	> 100	> 100	–	–	–	–	–	–	–	–	–	–	–
COC(=O)CC(NC(=O)OCc1ccccc1)C(C(=O)OCc1ccccc1)C(C)(OC)OC (configuration not stated)	> 100	> 100	26.7	> 100	> 100	> 100	> 100	> 100	58.8	–	–	–	–	–	–	–	–	–	–	–
COc1ccc(C(=O)C(CC2C(=O)NC(=O)NC2=O)c2ccc(OC)cc2)cc1 (configuration not stated)	> 100	> 100	> 100	> 100	> 100	> 100	> 100	> 100	–	–	–	–	–	–	–	–	–	–	–	–
CC(=O)O[C@]1(C)OC(=O)[C@@H](CC(C)C)N1[N+](=O)[O-]	> 100	> 100	> 100	> 100	> 100	> 100	> 100	> 100	> 100	–	–	–	–	–	–	–	–	–	–	–
Cc1cccc(C)c1NC(=O)CCc1nc(=S)[nH][nH]1	> 100	> 100	–	> 100	> 100	> 100	–	> 100	> 100	–	–	–	–	–	–	–	–	–	–	–
CC(C)OP(=O)(OC(C)C)/C(N)=N/Nc1ccc([N+](=O)[O-])cc1	> 100	> 100	> 100	> 100	> 100	> 100	> 100	> 100	> 100	–	–	–	–	–	–	–	–	–	–	–
Cc1ccc(S(=O)(=O)c2ccccc2[N+](=O)[O-])cc1	> 100	–	> 100	> 100	> 100	> 100	> 100	> 100	> 100	–	–	–	–	–	–	–	–	–	–	–
Cc1cc(N(CCC#N)CCC#N)ccc1N=Nc1ccc(Br)cc1	> 79.3	> 54.8	27.8	> 51.9	> 100	> 100	> 31.6	> 100	> 100	–	–	–	–	–	–	–	–	–	–	–
N/N=C1\C(=O)N(c2ccc(Cl)cc2Cl)C(=O)C(=O)C1c1nc2ccccc2o1 (configuration not stated)	> 100	> 100	> 100	> 100	> 100	> 100	> 100	> 100	> 100	–	–	–	–	–	–	–	–	–	–	–
c1ccc2c(c1)oc1ccc3nsnc3c12	> 100	–	> 100	> 100	> 100	> 100	> 100	> 100	–	–	–	–	–	–	–	–	–	–	–	–
CC(=O)OCC(=O)[C@@]12OC(C)(C)O[C@@H]1C[C@H]1[C@@H]3CC(C=O)=C4C=C(OCCCl)CC[C@]4(C)[C@@]3(F)[C@@H](O)C[C@@]12C	29.5	> 100	–	80.9	38.2	> 100	> 100	27.4	> 100	–	–	–	–	–	–	–	–	–	–	–

Compound	TGI (HCC-2998 colon) [µM]	TGI (SN12C renal) [µM]	TGI (SK-MEL-5 melanoma) [µM]	TGI (SF-539 CNS) [µM]	TGI (KM20L2 colon) [µM]	TGI (HCT-15 colon) [µM]	TGI (DMS 273 small cell lung) [µM]	TGI (HCT-116 colon) [µM]	TGI (RPMI-8226 leukemia) [µM]	GI50 (HCC-2998 colon) [µM]	GI50 (SN12C renal) [µM]	GI50 (SK-MEL-5 melanoma) [µM]	GI50 (SF-539 CNS) [µM]	GI50 (KM20L2 colon) [µM]	GI50 (HCT-15 colon) [µM]	GI50 (DMS 273 small cell lung) [µM]	GI50 (HCT-116 colon) [µM]	GI50 (RPMI-8226 leukemia) [µM]	GI50 (MDA-MB-435) [µM]	TGI (MDA-MB-435) [µM]
CC(=O)[O-].[Mn+3].[O-]c1ccccc1C=NCCNCCN=Cc1ccccc1[O-]	–	> 100	> 100	> 100	–	> 100	> 100	> 100	–	–	> 100	> 100	> 100	–	> 100	> 100	> 100	–	–	–
COc1ccc(C(O)c2cc3c(N)c(C(=O)Nc4cccc(Cl)c4)sc3nc2C)cc1 (configuration not stated)	> 35.9	> 72.7	> 32	–	–	> 49.2	–	> 33.1	> 100	1.76	2.02	1.17	0.858	–	1.18	–	0.921	3.21	0.0371	0.262
Cc1nc2ccc(NC(=O)CCNC(=O)CCCc3ccc(CC(C(=O)O)C(=O)O)cc3)cc2s1	> 100	> 100	> 100	> 100	–	> 100	–	> 100	> 100	> 100	> 100	> 100	> 100	–	> 100	–	> 100	> 100	> 100	> 100
O=C(Nc1ccc(-c2nc(-c3cccc(OCCN4CCOCC4)c3)c(-c3ccnc(Br)c3)[nH]2)cc1)c1ccccc1	> 100	> 100	3.21	3.71	–	3.2	–	> 100	2.47	2.76	6.94	1.77	1.23	–	0.72	–	2.58	0.407	1.69	3.76
CCCCCC[C@H](C)Nc1nc2ccccc2c2occc12	8.94	23.9	18	15.2	–	22	–	13.3	44.3	1.4	11.2	3.66	4.16	–	10.1	–	3.2	3.74	14.7	35.2
Cc1nc(Nc2ccccn2)sc1C(=O)/C=C/c1ccc(Cl)cc1	9.62	> 47.4	1.43	0.812	–	> 100	–	> 51.8	> 100	0.383	0.547	0.339	0.252	–	0.355	–	0.381	0.523	0.201	0.515
CC1=NN(C(=O)c2ccc(Cl)cc2)C(=O)/C1=C/c1ccccc1O	> 100	> 100	> 100	> 100	> 100	> 100	–	> 100	> 100	–	–	–	–	–	–	–	–	–	–	–
COc1ncnc(S(=O)(=O)c2ccc(N=C3C(=O)N(CN4CCN(c5cc6c(cc5F)c(=O)c(C(=O)O)cn6C5CC5)CC4)c4ccc(Cl)cc43)cc2)c1OC	> 50	> 50	> 50	> 50	–	> 50	–	> 50	> 50	37.9	30.4	19.7	> 50	–	19.7	–	26.4	13.5	> 50	> 50
CCCCCCCCNCCC[C@@H](C)[C@H]1CC[C@H]2[C@@H]3[C@H](OCCCN)C[C@H]4C[C@H](OCCCN)CC[C@]4(C)[C@H]3C[C@H](OCCCN)[C@]12C	7	5.68	6.54	2.6	–	16.9	–	2.61	3.49	2.04	1.21	2.24	0.81	–	3.39	–	0.87	1.27	0.768	2.5
C[C@]12CC[C@H](O)CC1=CC[C@@H]1C2CC[C@]2(C)Nc3c(cnn3-c3ccccc3)CC12 (some centres not stated)	22.3	–	12.4	2.99	5.8	18.6	3.66	12.2	1.49	–	–	–	–	–	–	–	–	–	–	–
C=C1CCC2(C#N)[C@H]3[C@H](CC[C@@H]2C)[C@@H](C)C[C@@H](CC(C)(C)NC(=O)CN2CCC2=O)[C@H]13 (some centres not stated)	22.8	49.5	16.2	19.4	–	26.8	–	16.2	15.9	7	11.9	4.24	5.98	–	3.68	–	3.43	2.87	6.19	23.8
Cn1c(-c2ccc(/C=N/NC(=S)N/N=C/c3ccc(-c4c[n+]5ccsc5n4C)cc3)cc2)c[n+]2ccsc12	> 100	> 100	> 100	> 100	–	> 100	–	> 100	> 100	–	–	–	–	–	–	–	–	–	–	> 100
COc1cc2c(cc1O)CC1c3c(cc(O)c(OC)c3-2)CCN1C (configuration not stated)	> 100	> 100	> 100	> 100	–	> 100	–	> 100	> 100	–	–	–	–	–	–	–	–	–	–	> 100
O=C1CCC(N2C(=O)c3ccccc3C2=O)C(=O)N1 (configuration not stated)	> 100	> 100	> 100	> 100	–	> 100	–	> 100	> 100	–	–	–	> 100	–	–	–	–	–	–	> 100
COC(=O)c1c2c(cc3c1CC1(Cc4cc5c(c(C(C)=O)c4C1)CCC5)C3)CCC2 (configuration not stated)	> 100	> 100	> 100	> 100	–	–	> 100	> 100	–	–	–	–	–	–	–	–	–	–	–	–
Cc1c2cc(Cl)c3ccccc3c2c[n+]2ccccc12	17.8	3.52	2.92	9.35	–	> 100	–	32.9	46	4.22	0.388	1.22	1.71	–	41.8	–	7.2	7.75	4.1	17.9
c1ccc(-c2nc(N3CCOCC3)c3c4c(sc3n2)CCCCCC4)nc1	19.8	29.4	9.45	26.7	–	18.6	–	15.3	9.67	6.99	5	1.99	13	–	3.43	–	3.69	2.12	4.82	17.7
COc1cc(NC(=O)CCSc2nc3ccc(C)cc3c(=O)n2Cc2ccccc2)cc(OC)c1OC	> 100	> 100	> 100	7.26	–	> 100	–	> 100	> 100	> 100	78	32.4	2.5	–	> 100	–	4.35	> 100	> 100	> 100
CC(C)(C)C(=CS(=O)/N=C/c1ccccc1)C(C)(C)C (configuration not stated)	–	51.7	73	> 100	> 100	80.7	92	> 100	46.3	–	–	–	–	–	–	–	–	–	–	–
